Assay results: PubChem BioAssay (NCI)
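Results reflect a 48-hour exposure of cells in 96-well plates to compound at five concentrations. GI50: concentration for 50% inhibition of growth. TGI: total growth inhibition.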

Key:
Assay in all cases: DTP human tumour cell line panel, 48 h
786-0 renal = tested on: 786-0 renal
CAKI-1 renal = tested on: CAKI-1 renal
EKVX NSCLC = tested on: EKVX NSCLC
HL-60(TB) leukemia = tested on: HL-60(TB) leukemia
HS 578T breast = tested on: HS 578T breast
HT29 colon = tested on: HT29 colon
OVCAR-4 ovarian = tested on: OVCAR-4 ovarian
SK-MEL-2 melanoma = tested on: SK-MEL-2 melanoma
SN12C renal = tested on: SN12C renal
UO-31 renal = tested on: UO-31 renal

Row | SMILES | TGI (786-0 renal) [µM] | TGI (CAKI-1 renal) [µM] | TGI (EKVX NSCLC) [µM] | TGI (HL-60(TB) leukemia) [µM] | TGI (HS 578T breast) [µM] | TGI (HT29 colon) [µM] | TGI (OVCAR-4 ovarian) [µM] | TGI (SK-MEL-2 melanoma) [µM] | TGI (SN12C renal) [µM] | TGI (UO-31 renal) [µM] | GI50 (786-0 renal) [µM] | GI50 (CAKI-1 renal) [µM] | GI50 (EKVX NSCLC) [µM] | GI50 (HL-60(TB) leukemia) [µM] | GI50 (HS 578T breast) [µM] | GI50 (HT29 colon) [µM] | GI50 (OVCAR-4 ovarian) [µM] | GI50 (SK-MEL-2 melanoma) [µM] | GI50 (SN12C renal) [µM] | GI50 (UO-31 renal) [µM]
1 | COC(=O)C1C(=O)C(C(=O)OC)C2CCC1N2C (stereo not given) | > 100 | > 100 | > 100 | > 65.8 | > 100 | > 100 | > 100 | 63.5 | > 100 | > 100 | – | – | – | – | – | – | – | – | – | –
2 | Cc1ncnc2c1ccn2[C@@H]1C[C@H](Oc2cc(C(F)F)c(F)c3c2CNCC3)[C@@H](O)[C@H]1O | > 100 | > 100 | > 100 | > 100 | > 100 | > 100 | > 100 | > 100 | > 100 | > 100 | > 100 | > 100 | > 100 | > 100 | > 100 | > 100 | > 100 | > 100 | > 100 | > 100
3 | Cc1c(Br)c(Br)c2c3c1nc(N1CCNCC1)n3CCC2 | 7.33 | 3.05 | 4.32 | 5.31 | 6.5 | 3.2 | 6.1 | 4.06 | 2.85 | 2.91 | 2.63 | 1.45 | 1.9 | 2.16 | 2.45 | 1.51 | 2.46 | 1.95 | 1.42 | 1.54
4 | Cc1cc(NS(=O)(=O)c2ccc(-c3cnc(C4CC4)o3)cc2)ccc1Cl | 17.8 | 15.5 | 17.1 | 1.23 | 11.5 | 3.89 | 19.5 | 20.3 | 13.9 | 12.5 | 0.605 | 0.0908 | 0.557 | 0.232 | 0.233 | 0.191 | 1.86 | 0.445 | 0.961 | 0.835
5 | Cn1cc(Nc2nccc(-c3ccc4c(c3)CN(C3COC3)CC[C@H]4NC(=O)c3cn(C(C)(C)C)nn3)n2)cn1 | > 100 | > 100 | > 100 | > 100 | > 100 | > 100 | > 100 | > 100 | > 100 | > 100 | 50.5 | 37.7 | > 100 | > 100 | 29.7 | 33 | > 100 | > 100 | 75.3 | 53.1
6 | CC(C)(Oc1cccc(N2CCC[C@@H](C(=O)N(Cc3ccc(-c4cn[nH]c4)cc3)C3CC3)C2)c1)C(=O)N1CCNCC1 | 25 | 21.9 | 27.9 | > 100 | 29.4 | 19.7 | 25.2 | 28 | 25.3 | 26.8 | 11.7 | 8.11 | 13.7 | 13.8 | 5.14 | 6.3 | 11.1 | 14.3 | 12.1 | 12.1
7 | C/C(=N\O)C1CC(CC(=O)O)C1(C)C (stereo not given) | > 100 | > 100 | > 100 | > 100 | > 100 | > 100 | > 100 | > 100 | > 100 | > 100 | – | – | – | – | – | – | – | – | – | –
8 | CCN(CC)CCOc1ccc(/C(=C(\C)Cc2ccc(OC)cc2)c2ccc(O)cc2)cc1 | 3 | 3.21 | 6.19 | 3.14 | 4.22 | 3.67 | 9.91 | 3.71 | 3.03 | 2.8 | 1.59 | 1.65 | 2.08 | 1.41 | 1.69 | 1.43 | 2.95 | 1.94 | 1.53 | 1.45
9 | O=C(Nc1nc2ccc(OC(F)(F)F)cc2s1)c1ccc(F)cc1 | > 100 | 7.26 | 10.6 | 9.29 | > 100 | > 100 | > 100 | 7.39 | 8.21 | > 100 | 3.47 | 2.29 | 2.65 | 3.04 | 3.12 | 3.88 | 2.95 | 3.08 | 2.58 | 3.44
10 | CC1(C)CCC2(C(=O)O)C(O)CC3(C)C(=CCC4C5(C)CCC(OC6OCC(O)C(O)C6OC6OCC(O)C(O)C6OC6OCC(O)C(OC7OC(CO)C(O)C(O)C7O)C6O)C(C)(C)C5CCC43C)C2C1 (stereo not given) | > 100 | > 100 | > 100 | 48.3 | > 100 | > 100 | 88.7 | 76.3 | 76.5 | 35.3 | – | – | – | – | – | – | – | – | – | –
11 | O=C(NNC1=NS(=O)(=O)c2ccccc2N1c1ccccc1)c1cnccn1 | > 100 | > 100 | > 100 | > 100 | > 100 | > 100 | > 100 | > 100 | > 100 | > 100 | > 100 | > 100 | > 100 | > 100 | > 100 | > 100 | > 100 | > 100 | > 100 | 67.4
12 | CC[C@]1(O)CC2CN(CCc3c([nH]c4ccccc34)C(C(=O)OC)(c3cc4c(cc3OC)N(C=O)[C@H]3[C@@](O)(C(=O)OC)[C@H](OC(C)=O)[C@]5(CC)[C@@H]6C[C@@H]6CN6CC[C@]43[C@@H]65)C2)C1 (stereo not given in full) | 6.65 | 12.2 | > 32.5 | < 0.00325 | > 32.5 | 0.033 | > 29.9 | 3.67 | > 32.5 | > 19.4 | < 0.00325 | 0.0324 | < 0.00325 | < 0.00325 | < 0.00325 | < 0.00325 | < 0.00325 | < 0.00325 | < 0.00325 | 0.173
13 | COc1ccc(-c2cc(-c3ccc(Cl)cc3)nc(SCCCC(=O)NO)n2)cc1OC | 2.68 | 1.54 | 8.89 | 8.56 | 11.1 | > 26 | 12.3 | 10.8 | 5.64 | 1.09 | 0.591 | 0.308 | 1.04 | 2.48 | 2.31 | 1.46 | 0.889 | 2.9 | 0.819 | 0.277
14 | CN1CCC(=C(c2ccc(Cl)cc2)c2ccccn2)CC1 | > 100 | > 100 | > 100 | > 100 | > 100 | > 100 | > 100 | > 100 | > 100 | > 100 | > 100 | > 100 | > 100 | 58.9 | 44.9 | 78.8 | > 100 | > 100 | > 100 | 18.5
15 | COc1cccc(N2C(=N)/C(=C3\Nc4ccccc4S3)CC2=O)c1 | > 100 | > 100 | > 100 | > 100 | > 100 | > 100 | 71.9 | > 100 | > 100 | > 100 | 4.91 | 8.21 | > 100 | 4.85 | 27.5 | 3.34 | 12.1 | 48.4 | > 100 | 4.1
16 | N#CC(Cl)CS(=O)(=O)c1ccccc1 (stereo not given) | 30.5 | 10.2 | 38.6 | > 100 | > 100 | 53.1 | 4.24 | 33 | 31.7 | 33.5 | – | – | – | – | – | – | – | – | – | –
17 | COc1ccc(/C=C/C(=O)C(=O)/C=C/c2ccc(OC)c(OC)c2)cc1OC | 7.88 | > 100 | > 100 | 16.9 | > 100 | 2.62 | > 100 | > 100 | 17.7 | 3.41 | 2.28 | 3.17 | 5 | 2.36 | 2.71 | 0.763 | 4.07 | 30.6 | 3.06 | 1.63
18 | Cc1[nH]c(N)nc(=S)c1CCCNc1ccccc1 | > 100 | > 100 | > 100 | > 100 | > 100 | > 100 | > 100 | > 100 | > 100 | > 100 | – | – | – | – | – | – | – | – | – | –
19 | C=C1CC[C@@](C)(c2cc(Br)c(C)cc2OC(C)=O)[C@H]1C | 25.4 | 28.8 | 28.2 | 28.2 | 42.5 | 28.1 | 17.4 | 32.4 | 23.8 | 30.5 | 12.6 | 14.7 | 14.7 | 11.9 | 19.3 | 14.9 | 3.63 | 13.8 | 11.4 | 13.1
